The values that follow come from patent publication US20260041770A1, “CELL MEMBRANE-ATTACHED HYALURONIC ACID-CD44 SPECIFIC BINDING REACTION POLYMER COMPOUND TO ENHANCE THE IMMUNE-ANTICANCER FUNCTION OF NATURAL KILLER CELLS” (DONGGUK UNIVERSITY INDUSTRY-ACADEMIC COOPERATION FOUNDATION, priority 2023, published 2026).

In this experiment the test system is NK92-mi NK cells. The experiment is described as follows: NK cell surface modification efficiency (fluorescence intensity, cell coating efficacy). Conditions: polymer 1.0 mg/mL, 30 minutes at room temperature. Type of experiment: cell-based. Here is the method: A polymer compound (HA-PEG-DSPE) was dissolved in MEM alpha at a concentration of 1.0 mg/mL, and 5×10^5 NK92-mi NK cells were evenly mixed with 100 μL of solution. The surface of NK cell was modified (HA-PEG-DSPE bound to NK cell) at room temperature for 30 minutes and then washed twice with MEM alpha. Cells were then lysed with 250 μL of RIPA buffer and stored at 4° C. for 30 minutes. Finally, 250 μL of distilled water was added, diluted, and transferred to 96-well to measure fluorescence intensity at 480/535 nm.

As for PEG600, the “fluorescence intensity on NK cell” value is given as “fluorescence intensity is not substantially measured”.

As for PEG2000, the “cell coating efficacy of NK cell” value is “higher coating efficacy (cell coating efficacy, ng/10^5 cells) of NK cell compared to the polymer compound using PEG600 and PEG5000”; the “fluorescence intensity on NK cell” value is “strong fluorescence intensity is measured on the surface of NK cell”.
